Source: patent publication US7026111B2, “Methods and reagents for improved cell-based assays” (Beckman Coulter, Inc., priority 2001, dated 2006)

Columns and labels:
[1] = system: Caspase 6; assay: Caspase 6 CellProbe assay in HeLa cells (Example 6); type: cell-based; settings: HeLa 1.5×10^4 cells/well, 30 μM CellProbe, 1 hour
Protocol: To initiate such assays, Caspase CellProbe Reagent™ (Beckman Coulter) is added to a suspension of 1.5×10^4 HeLa cells/well in a 96-well microtiter plate. The final concentration of the Caspase CellProbe Reagent™ was 30 μM. Reaction is for 1 hour and is as described in Example 1.

[2] = system: aminopeptidase; settings: concentrations of approximately 10 mM; cited from earlier work
[3] = system: Caspase 3; assay: Caspase 3 CellProbe assay with U-937 suspension cells; type: cell-based
Protocol: (§1) To initiate such assays, 25 μl of Caspase CellProbe Reagent™ (Beckman Coulter) was added to a suspension of 1×10^5 U-937 cells in 110 μl of culture medium in a 96-well microtiter plate. Cells were incubated for one hour, and had been either uninduced or induced by prior incubation in the presence of 2.5 μM Camptothecin. The final concentration of the Caspase CellProbe Reagent™ was 30 μM.
(§2) In the Figures, the 5 series of columns reflect results obtained with no glycerol, 20% glycerol, 30% glycerol, 40% glycerol and 50% glycerol. The individual columns (left to right) within each data series reflect results for: unmixed sample—induced; unmixed sample—uninduced; mixed sample—induced; and mixed sample—uninduced.

[4] = system: Caspase 1; assay: Caspase 1 CellProbe assay with U-937 suspension cells; type: cell-based
Protocol: as §1, §2

[5] = system: Caspase 6; assay: Caspase 6 CellProbe assay with U-937 suspension cells; type: cell-based
Protocol: as §1, §2

[6] = system: HeLa cells; assay: CellProbe assay in HeLa cells with betaine (Example 4); type: cell-based; settings: HeLa 1.5×10^4/well, 30 μM CellProbe substrate; particularly if unmixed
Protocol: For such experiments, HeLa cells are seeded overnight at 1.5×10^4/well and provided with 30 μM CellProbe substrate (final concentration).

[7] = system: HeLa cells; assay: CellProbe assay in HeLa cells with betaine (Example 5); type: cell-based; settings: betaine 2.0-2.4 M; HeLa 7.5×10^3/well, 25 μM CellProbe substrate; particularly if unmixed
Protocol: The enhanced detection sensitivity of the assays of the present invention resulting from the use of Betaine (at 2.0, 2.1, 2.2, 2.3, 2.4 M) is shown in FIG. 8. For such experiments, HeLa cells are seeded overnight at 7.5×10^3/well and provided with CellProbe substrate (25 μM final concentration). […] Results of similar assays conducted with 35% DMSO are shown for comparison.

[8] = system: Caspase 6; assay: Caspase 6 CellProbe assay for apoptosis using HeLa cells (Example 2); type: cell-based
Protocol: To initiate 110 such assays, Caspase CellProbe Reagent™ (Beckman Coulter) is added to a suspension of 1.5×10^4 HeLa cells/well in a 96-well microtiter plate. The final concentration of the Caspase CellProbe Reagent™ was 30 μM. Reaction is for 1 hour.
In FIG. 5, and in the examples below, the Fluorescence Ratio is defined as: Fluorescence Ratio=Induced Fluorescence/Uninduced Fluorescence where the Induced Fluorescence is the difference between the 1 Hour Value and the Start of Assay Value, and the Uninduced Fluorescence is the difference between the 1 Hour Value and the Uninduced Start Value. In FIG. 5, data are plotted as a function of potassium glutamate or DMSO concentration. The dark columns indicate results obtained upon mixing the samples, while the light columns indicate results obtained when the samples were not mixed after the addition of glutamate.

[9] = system: Caspase; assay: One hour kinetic assay detection of Caspase using U-937 cells; type: cell-based; settings: above the 50% DMSO concentration; due to non-specific signal from uninduced cell controls
Protocol: as §1
The results shown in FIG. 4 is of kinetic signal from twenty fluorescence readings of the one hour assay. In FIG. 4, lines containing a diamond (♦) denote unmixed samples; lines containing boxes (▪) and appearing as thick lines denote mixed samples.

[10] = various optimal glycerol concentrations (20-50%), U-937 cells, 30 μM CellProbe, 1 hour

## O=C(O)[C@@H]1CCCN1 [proline]
[1]
  detection sensitivity: did not enhance detection sensitivity

## O=C[C@H](O)[C@H](O)[C@H](O)CO [ribose]
[1]
  assay performance (detection sensitivity): improved assay performance

## C[N+](C)(C)[O-] [trimethylamine N-oxide]
[1]
  assay performance (detection sensitivity): improved assay performance

## OC[C@@H](O)[C@H](O)CO [threitol]
[1]
  assay performance (detection sensitivity): improved assay performance

## OCCO [ethylene glycol]
[1]
  assay performance (detection sensitivity): improved assay performance

## [Ca+2].[Cl-].[Cl-] [calcium chloride]
[2]
  effect on enzyme reaction with the assay compound: inhibitory

## OC[C@H]1O[C@H](O[C@H]2O[C@H](CO)[C@@H](O)[C@H](O)[C@H]2O)[C@H](O)[C@@H](O)[C@@H]1O [trehalose]
[1]
  assay performance (detection sensitivity): improved assay performance

## OCC(O)CO [glycerol]
[3]; raising the glycerol concentration from 0 to 50%, greater magnitude when unmixed
  relative signal, Caspase 3: significant relative signal increase
[3]; [10]
  detection of Caspase 3 activity: dramatic improvement
[4]; added unmixed glycerol ~40%
  effect on Caspase 1 assay: deleterious effect
[4]; [10]
  detection of Caspase 1 activity: dramatic improvement
[5]; added unmixed glycerol ~50%
  effect on Caspase 6 assay: deleterious effect
[5]; [10]
  detection of Caspase 6 activity: dramatic improvement

## CCOC(=O)CC[C@H](N)C(=O)OCC [glutamic acid diethyl ester]
[1]
  detection sensitivity: did not enhance detection sensitivity

## C[N+](C)(C)CC(=O)O [betaine]
[6]
  assay sensitivity: improved assay sensitivity
[7]
  assay sensitivity: improved assay sensitivity

## N[C@@H](CCC(=O)[O-])C(=O)[O-].[K+].[K+] [glutamate, potassium glutamate]
[8]; glutamate 1.5 M, 1.7 M, 1.8 M, 2.0 M, HeLa cells, 1 hour
  detection of Caspase 6 activity: dramatic improvement
[8]; inclusion of glutamate, particularly if unmixed
  assay sensitivity: improved assay sensitivity

## C[S+](C)[O-] [DMSO, dimethyl sulfoxide]
[9]
  signal ratio (induced/uninduced): signal ratio decrease
